Measurements published in PubChem BioAssay AID1918933 (Molecular Pharmacology Branch, DTP, NCI, 2023).

Test system: 186277-243-T-J2-PDC complex spheroid viability
Experiment: Anticancer human tumor 186277-243-T-J2-PDC patient-derived colon adenocarcinoma cell line growth inhibition
Conditions: for IC50: curve of first compound; for viability, T/C: stronger effect = lower value
Excerpt: Multicellular complex tumor spheroid response to LSD1 Inhibitor Iadademstat in combination with a variety of drugs and investigational agents in selected tumor cell lines
The current study was undertaken to assess response to LSD1 inhibitors in combination with standard-of-care drugs and investigational agents in solid tumor complex spheroid models as well as in the K-562 leukemia. Complex spheroids include a stromal component modeled by human endothelial cells (HUVEC) and fibroblasts modeled by human mesenchymal stem cells (MSCs). The concentration ranges selected for each drug and investigational agent were based upon clinically achievable concentrations if the clinical Cmax of the agent was known.
Compounds. The drugs and investigational agents used in this study are listed on Table 1. All of the agents used, including staurosporine (NSC755774) and gemcitabine (NSC613327), were obtained from the Developmental Therapeutics Program, NCI. FDA-approved anticancer drugs are available from the NCI at http://dtp.nci.nih.gov/branches/dscb/oncology_drugset_explanation.html. Drugs and investigational agents were >95% pure by proton nuclear magnetic resonance (NMR) and liquid chromatography/mass spectrometry (LC/MS). Stock solutions were prepared at 400x in DMSO, stored at -70 degrees C, and diluted in fresh medium prior to their use. The final concentration of DMSO in cell culture wells never exceeded 0.25% (v/v). The FDA-approved anticancer drug set is available from the Developmental Therapeutics Program at https://dtp.cancer.gov/organization/dscb/obtaining/available_plates.htm. All drugs and investigational agents were tested over a range starting from a high concentration at or near the clinical Cmax and decreasing in half-log increments. If the clinical Cmax for an agent had not been determined, the highest concentration tested was 10 microM.
Cell Lines. The patient-derived cancer cell (PDC) lines: 292921-168-R-J2-PDC, K24384-001-R-PDC, and 521955-158-R2-J5-PDC pancreatic carcinomas, 556581-035-R-J1 ovarian carcinoma, 324938-238-R-J1-PDC, 855422-203-R-J1-PDC and 883617-216-R-J1-PDC urothelial bladder carcinomas, 743489-274-T-PDC renal cell carcinoma, 138582-R-J1 Merkel cell tumor, K60290-347-R-J1 and K57222-313-R-J1-PDC glioblastomas, 653999-131-R-J2-PDC, LG0703-F948-PDC, and 349418-098-R-PDC non-small cell lung carcinomas, 885512-296-R-J2-PDC, 171881-019-R-J1-PDC breast carcinomas and 186277-243-T-J2-PDC and 233499-124-R-J2-PDC colon carcinomas were obtained from the NCI Patient-Derived Models Repository (PDMR, https://pdmr.cancer.gov). The established cell lines NCI/ADR-RES (RRID:CVCL_14520 and OVCAR-5 (RRID:CVCL_1628) ovarian carcinomas, 786-O (RRID:CVCL_1051) and A498 (RRID:CVCL_A498) renal cell carcinoma, NCI-H211 (ATCC, cat. CRL-5824; RRID:CVCL_1529), NCI-H196 (ATCC, cat. CRL-5823, RRID:CVCL_1509), SW 1271 (ATCC, cat. CRL-2177, RRID:CVCL_1716) and NCI-H1876 (ATCC, cat. CRL-5902, RRID:CVCL_1503) small cell lung carcinomas, MDA-MB-231 (RRID:CVCL_0062) and MDA-MB-468 (RRID:CVCL_0419)breast carcinomas (10-12). Pooled donor human umbilical vein endothelial cells (HUVEC, Lonza, cat. CC-2519) and human mesenchymal stem cells (hMSC, Lonza, cat. PT-2501) were purchased from Lonza (Walkersville, MD).
Cell Culture. All cells were maintained in an incubator at 37 degrees C and 5% CO2 with 95% humidity. The PDC lines were cultured according to standard operating procedures established by the NCI PDMR (https://pdmr.cancer.gov). Briefly all PDCs were thawed and cultured in Matrigel-coated flasks prepared with a working solution of 1X Ham's F-12 nutrient mix, without supplementation (Invitrogen, Waltham, MA, cat. 11765054), 100 U/mL penicillin-streptomycin (Invitrogen, cat. 15140122), and 2.5% Matrigel (Corning Inc., Corning, NY, cat. 354248) for the first three passages. […]

[1] = second compound 0.1 µM, first compound 0.00316 µM
[2] = second compound 0.1 µM, first compound 0.01 µM
[3] = second compound 0.1 µM, first compound 0.0316 µM
[4] = second compound 0.1 µM, first compound 0.1 µM
[5] = second compound 0.316 µM, first compound 0.00316 µM
[6] = second compound 0.316 µM, first compound 0.01 µM
[7] = second compound 0.316 µM, first compound 0.0316 µM
[8] = second compound 0.316 µM, first compound 0.1 µM
[9] = second compound 1 µM, first compound 0.00316 µM
[10] = second compound 1 µM, first compound 0.01 µM
[11] = second compound 1 µM, first compound 0.0316 µM
[12] = second compound 1 µM, first compound 0.1 µM
[13] = second compound 3.16 µM, first compound 0.00316 µM
[14] = second compound 3.16 µM, first compound 0.01 µM
[15] = second compound 3.16 µM, first compound 0.0316 µM
[16] = second compound 3.16 µM, first compound 0.1 µM
[17] = second compound 10 µM, first compound 0.00316 µM
[18] = second compound 10 µM, first compound 0.01 µM
[19] = second compound 10 µM, first compound 0.0316 µM
[20] = second compound 10 µM, first compound 0.1 µM
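Further: 7 day exposure to compounds.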
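Wherever viability, T/C is given: 100% = DMSO vehicle control viability.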

Compound: CC[C@@]1(O)C(=O)OCc2c1cc1n(c2=O)Cc2cc3c(CN(C)C)c(O)ccc3nc2-1 + NC1CC1c1ccc(-c2cccc(O)c2)cc1
- IC50 (second compound 0.1 µM): 0.0641 µM
- IC50 (second compound 0.316 µM): 0.0586 µM
- IC50 (second compound 1 µM): 0.0609 µM
- IC50 (second compound 3.16 µM): 0.0644 µM
- IC50 (second compound 10 µM): 0.0567 µM
- viability, T/C (second compound 0.1 µM, first compound 0.000316 µM): 117%
- viability, T/C (second compound 0.1 µM, first compound 0.001 µM): 125%
- viability, T/C [1]: 153%
- viability, T/C [2]: 116%
- viability, T/C [3]: 74.5%
- viability, T/C [4]: 34.9%
- viability, T/C (second compound 0.316 µM, first compound 0.000316 µM): 101%
- viability, T/C (second compound 0.316 µM, first compound 0.001 µM): 96.5%
- viability, T/C [5]: 139%
- viability, T/C [6]: 118%
- viability, T/C [7]: 71.7%
- viability, T/C [8]: 31.2%
- viability, T/C (second compound 1 µM, first compound 0.000316 µM): 90.7%
- viability, T/C (second compound 1 µM, first compound 0.001 µM): 108%
- viability, T/C [9]: 127%
- viability, T/C [10]: 119%
- viability, T/C [11]: 73.1%
- viability, T/C [12]: 32.5%
- viability, T/C (second compound 3.16 µM, first compound 0.000316 µM): 101%
- viability, T/C (second compound 3.16 µM, first compound 0.001 µM): 97.8%
- viability, T/C [13]: 119%
- viability, T/C [14]: 131%
- viability, T/C [15]: 76.3%
- viability, T/C [16]: 33.6%
- viability, T/C (second compound 10 µM, first compound 0.000316 µM): 103%
- viability, T/C (second compound 10 µM, first compound 0.001 µM): 96.4%
- viability, T/C [17]: 123%
- viability, T/C [18]: 116%
- viability, T/C [19]: 74%
- viability, T/C [20]: 26.7%

Compound: COc1cc(C2c3cc4c(cc3C(OC3OC5COC(C)OC5C(O)C3O)C3COC(=O)C23)OCO4)cc(OC)c1O (stereo not given) + NC1CC1c1ccc(-c2cccc(O)c2)cc1
- IC50 (second compound 0.1 µM): 0.596 µM
- IC50 (second compound 0.316 µM): 0.586 µM
- IC50 (second compound 1 µM): 0.667 µM
- IC50 (second compound 3.16 µM): 0.635 µM
- IC50 (second compound 10 µM): 0.458 µM
- viability, T/C (second compound 0.1 µM, first compound 0.00949 µM): 107%
- viability, T/C (second compound 0.1 µM, first compound 0.03 µM): 134%
- viability, T/C (second compound 0.1 µM, first compound 0.0949 µM): 116%
- viability, T/C (second compound 0.1 µM, first compound 0.3 µM): 73.7%
- viability, T/C (second compound 0.1 µM, first compound 0.949 µM): 36.2%
- viability, T/C (second compound 0.1 µM, first compound 3 µM): 17.4%
- viability, T/C (second compound 0.316 µM, first compound 0.00949 µM): 103%
- viability, T/C (second compound 0.316 µM, first compound 0.03 µM): 134%
- viability, T/C (second compound 0.316 µM, first compound 0.0949 µM): 118%
- viability, T/C (second compound 0.316 µM, first compound 0.3 µM): 73%
- viability, T/C (second compound 0.316 µM, first compound 0.949 µM): 36.6%
- viability, T/C (second compound 0.316 µM, first compound 3 µM): 18%
- viability, T/C (second compound 1 µM, first compound 0.00949 µM): 99.7%
- viability, T/C (second compound 1 µM, first compound 0.03 µM): 134%
- viability, T/C (second compound 1 µM, first compound 0.0949 µM): 121%
- viability, T/C (second compound 1 µM, first compound 0.3 µM): 80.9%
- viability, T/C (second compound 1 µM, first compound 0.949 µM): 38.6%
- viability, T/C (second compound 1 µM, first compound 3 µM): 17.7%
- viability, T/C (second compound 3.16 µM, first compound 0.00949 µM): 100%
- viability, T/C (second compound 3.16 µM, first compound 0.03 µM): 137%
- viability, T/C (second compound 3.16 µM, first compound 0.0949 µM): 133%
- viability, T/C (second compound 3.16 µM, first compound 0.3 µM): 79%
- viability, T/C (second compound 3.16 µM, first compound 0.949 µM): 39.9%
- viability, T/C (second compound 3.16 µM, first compound 3 µM): 17.4%
- viability, T/C (second compound 10 µM, first compound 0.00949 µM): 94.3%
- viability, T/C (second compound 10 µM, first compound 0.03 µM): 146%
- viability, T/C (second compound 10 µM, first compound 0.0949 µM): 119%
- viability, T/C (second compound 10 µM, first compound 0.3 µM): 64.1%
- viability, T/C (second compound 10 µM, first compound 0.949 µM): 29.9%
- viability, T/C (second compound 10 µM, first compound 3 µM): 11.2%

Compound: Nc1ncn(C2CC(O)C(CO)O2)c(=O)n1 (stereo not given) + NC1CC1c1ccc(-c2cccc(O)c2)cc1
- IC50 (second compound 0.1 µM): > 1 µM
- IC50 (second compound 0.316 µM): > 1 µM
- IC50 (second compound 1 µM): > 1 µM
- IC50 (second compound 3.16 µM): > 1 µM
- IC50 (second compound 10 µM): > 1 µM
- viability, T/C [1]: 108%
- viability, T/C [2]: 103%
- viability, T/C [3]: 112%
- viability, T/C [4]: 106%
- viability, T/C (second compound 0.1 µM, first compound 0.316 µM): 148%
- viability, T/C (second compound 0.1 µM, first compound 1 µM): 159%
- viability, T/C [5]: 100%
- viability, T/C [6]: 102%
- viability, T/C [7]: 114%
- viability, T/C [8]: 138%
- viability, T/C (second compound 0.316 µM, first compound 0.316 µM): 143%
- viability, T/C (second compound 0.316 µM, first compound 1 µM): 150%
- viability, T/C [9]: 104%
- viability, T/C [10]: 109%
- viability, T/C [11]: 107%
- viability, T/C [12]: 119%
- viability, T/C (second compound 1 µM, first compound 0.316 µM): 137%
- viability, T/C (second compound 1 µM, first compound 1 µM): 157%
- viability, T/C [13]: 100%
- viability, T/C [14]: 95.5%
- viability, T/C [15]: 97.3%
- viability, T/C [16]: 121%
- viability, T/C (second compound 3.16 µM, first compound 0.316 µM): 140%
- viability, T/C (second compound 3.16 µM, first compound 1 µM): 162%
- viability, T/C [17]: 110%
- viability, T/C [18]: 107%
- viability, T/C [19]: 98.6%
- viability, T/C [20]: 112%
- viability, T/C (second compound 10 µM, first compound 0.316 µM): 124%
- viability, T/C (second compound 10 µM, first compound 1 µM): 148%
